In PMC11480511 (Scientific Reports, 2024):
≈ marks a conversion by molar mass, not a printed value. Where “and” joins values, the source holds several entries; their conditions need not be identical. Identical values can stand only once. Like-named read-outs stand apart in the source and are kept apart here.

Assays:
UO-31 = test: NCI single-dose growth inhibition screen; assay type: cell-based, human; details: single dose 10^−5 M; for inhibition at 10 µM: Homo sapiens, UO-31, Renal Cancer UO-31
[1] = tested on: P. aeruginosa ATCC 27,853; test: Antibacterial screening, agar cup diffusion method; assay type: cell-based; details: Pseudomonas aeruginosa, ATCC27; Gram –ve strain; read-out: Minimum inhibitory concentrations (MIC, µM) P. aeruginosa ATCC 27,853
Procedure: (§1) Anti-bacterial activity of the recently synthesized compounds 3a-k was evaluated at AUMC (Assiut University Mycological Centre), Assiut, Egypt. Assays were done against Gram-negative strains of K. pneumoniae (ATCC 100310, E. coli (ATCC 25922), Pseudomonas aeruginosa (ATCC 27853) and the Gram-positive S. aureus (ATCC 6538) strain utilizing standard agar cup diffusion method. The isolates from the four bacterial species examined were kept in TSB (Trypticase Soya Broth, Becton and Dickinson) with 10% glycerol at -70 °C and then subcultured on TSA (Trypticase Soya Agar, Becton and Dickinson) and TSB for 24 h at 37 °C former to inoculation. Bacterial isolates were then plated on sterile petri plates with 1 × 10^8 CFU/mL (0.5 McFarland turbidity) and 20 mL of Mueller Hinton Agar media (Oxoid) was then loaded. To ensure that the microorganisms were evenly dispersed, the plates were gently rotated before being left to harden on a level surface. Four equally spaced spherical-shaped wells (10 mm diameter) were painstakingly drilled using a sterilized cork bore after media solidification. All tested compounds under test underwent two-fold serial dilutions in a sequential manner. Three replications of 100 µL of each concentration were added to a well using a micropipette. Plates were then incubated for 24-hour at 37 °C. The average of the inhibition zones was then calculated. To determine the MICs, the natural logarithm of each diluted test substance’s concentration was plotted against the average area of the related inhibition zone. Following that, a regression line was created and the intercept on the ‘ln concentration” axis was determined, and the antilogarithm was calculated to indicate the MIC value[34],[63].

SK-MEL-28 = test: NCI single-dose growth inhibition screen; assay type: cell-based; details: Homo sapiens; Melanoma SK-MEL-28; single dose 10^−5 M
BT-549 = test: NCI single-dose growth inhibition screen; assay type: cell-based; details: Homo sapiens; Breast Cancer BT-549; single dose 10^−5 M
CAKI-1 = test: NCI single-dose growth inhibition screen; assay type: cell-based; details: Homo sapiens; Renal Cancer CAKI-1; single dose 10^−5 M
SR = test: NCI single-dose growth inhibition screen; assay type: cell-based; details: Homo sapiens; Leukemia SR; single dose 10^−5 M
LOX IMVI = test: NCI single-dose growth inhibition screen; assay type: cell-based, human; details: Melanoma LOX IMVI, single dose 10^−5 M; for inhibition at 10 µM: Homo sapiens, LOX IMVI
MALME-3 M = test: NCI single-dose growth inhibition screen; assay type: cell-based; details: Homo sapiens; Melanoma MALME-3 M; single dose 10^−5 M
NCI-H23 = test: NCI single-dose growth inhibition screen; assay type: cell-based; details: Homo sapiens; Non-Small Cell Lung Cancer NCI-H23; single dose 10^−5 M
S. aureus ATCC 6538 = test: Antibacterial screening, agar cup diffusion method; assay type: cell-based; details: Staphylococcus aureus, ATCC6538; Gram + ve strain; read-out: Minimum inhibitory concentrations (MIC, µM) S. aureus ATCC 6538
Procedure: as §1

NCI-H460 = test: NCI single-dose growth inhibition screen; assay type: cell-based; details: Homo sapiens; Non-Small Cell Lung Cancer NCI-H460; single dose 10^−5 M
MCF7 = test: NCI single-dose growth inhibition screen; assay type: cell-based, human; details: single dose 10^−5 M; for Growth Inhibition (%): Breast Cancer MCF7; for inhibition at 10 µM: Homo sapiens, MCF7, Breast Cancer MCF7
human melanoma LOX IMVI = test: cells; details: for IC50: read-out: In vitro cytotoxicity (IC50) LOX IMVI (µM ± SEM)
SF-539 = test: NCI single-dose growth inhibition screen; assay type: cell-based; details: Homo sapiens; CNS Cancer SF-539; single dose 10^−5 M
OVCAR-8 = test: NCI single-dose growth inhibition screen; assay type: cell-based; details: Homo sapiens; Ovarian Cancer OVCAR-8; single dose 10^−5 M
SNB-19 = test: NCI single-dose growth inhibition screen; assay type: cell-based; details: Homo sapiens; CNS Cancer SNB-19; single dose 10^−5 M
SN12C = test: NCI single-dose growth inhibition screen; assay type: cell-based; details: Homo sapiens; Renal Cancer SN12C; single dose 10^−5 M
SF-268 = test: NCI single-dose growth inhibition screen; assay type: cell-based; details: Homo sapiens; CNS Cancer SF-268; single dose 10^−5 M
MDA-MB-468 = test: NCI single-dose growth inhibition screen; assay type: cell-based; details: Homo sapiens; Breast Cancer MDA-MB-468; single dose 10^−5 M
[2] = tested on: K. pneumoniae ATCC 10,031; test: Antibacterial screening, agar cup diffusion method; assay type: cell-based; details: read-out: Minimum inhibitory concentrations (MIC, µM) K. pneumoniae ATCC 10,031
Procedure: as §1

E. coli ATCC 25,922 = test: Antibacterial screening, agar cup diffusion method; assay type: cell-based; details: read-out: Minimum inhibitory concentrations (MIC, µM) E. coli ATCC 25,922
Procedure: as §1

RXF 393 = test: NCI single-dose growth inhibition screen; assay type: cell-based; details: Homo sapiens; Renal Cancer RXF 393; single dose 10^−5 M
HS 578T = test: NCI single-dose growth inhibition screen; assay type: cell-based; details: Homo sapiens; Breast Cancer HS 578T; single dose 10^−5 M
A549/ATCC = test: NCI single-dose growth inhibition screen; assay type: cell-based; details: Homo sapiens; Non-Small Cell Lung Cancer A549/ATCC; single dose 10^−5 M
786-0 = test: NCI single-dose growth inhibition screen; assay type: cell-based; details: Homo sapiens; Renal Cancer 786-0; single dose 10^−5 M
A498 = test: NCI single-dose growth inhibition screen; assay type: cell-based, human; details: single dose 10^−5 M; for inhibition at 10 µM: Homo sapiens, A498, Renal Cancer A498
NCI-H522 = test: NCI single-dose growth inhibition screen; assay type: cell-based; details: Homo sapiens; Non-Small Cell Lung Cancer NCI-H522; single dose 10^−5 M
[3] = tested on: A498 renal cancer cell line; test: cells; details: Homo sapiens; for viability at 0.4 µM / viability at 1.6 µM / viability at 25 µM / viability at 100 µM: A498; for IC50: A498, read-out: In vitro cytotoxicity (IC50) A498 cell line (µM ± SEM)
EKVX = test: NCI single-dose growth inhibition screen; assay type: cell-based; details: Homo sapiens; Non-Small Cell Lung Cancer EKVX; single dose 10^−5 M
M14 = test: NCI single-dose growth inhibition screen; assay type: cell-based; details: Homo sapiens; Melanoma M14; single dose 10^−5 M
Procedure: Following the guidelines established by the drug evaluation department of the National Cancer Institute (NCI), USA, all target compounds 3a–l were examined against 60 cancer cell lines at a single concentration of 10 µM.
The anti-cancer potential of the tested compounds was evaluated at the National cancer institute (NCI), USA, against 9 panels of 60 various cell lines derived from nine human tumours available usually at NCI library. The procedures for the screening were described in details in NCI website (dttp://www.dtp.nci.nih.gov.) and were done according to NCI protocols[60] . The anticancer screening was carried out at single dose of 10^−5 M, NCI, Bethesda, USA. The results obtained as growth inhibition (%).

HL-60(TB) = test: NCI single-dose growth inhibition screen; assay type: cell-based; details: Homo sapiens; Leukemia HL-60(TB); single dose 10^−5 M
[4] = Klebsiella pneumoniae, ATCC10, Gram –ve strain
[5] = Escherichia coli, ATCC25, Gram –ve strain

For `O=C(O)c1cn(C2CC2)c2cc(N3CCN(C(=O)CCCN4C(=O)SC(=Cc5ccccc5)C4=O)CC3)c(F)cc2c1=O` [3a, 7-[4-[4-[5-benzylidene-2,4-dioxo-thiazolidin-3-yl]butanoyl]piperazin-1-yl]-1-cyclopropyl-6-fluoro-4-oxo-quinoline-3-carboxylic acid], the inhibition at 10 µM (UO-31) was 53.2%, the “Growth Inhibition (%)” value (UO-31; Renal Cancer UO-31) was 36.0% and the MIC [1] was greater than 20 µM. For the same compound, the inhibition at 10 µM (SK-MEL-28) was 9%, the melting point was 238 °C and the inhibition at 10 µM (BT-549) was 7.3%. For the same compound, the inhibition at 10 µM (CAKI-1) was 10.9%, the inhibition at 10 µM (SR) was 29.9% and the inhibition at 10 µM (LOX IMVI) was 41.4%. For the same compound, the “Growth Inhibition (%)” value (LOX IMVI) was 53.25% and 53.3%, the inhibition at 10 µM (MALME-3 M) was 30.4% and the inhibition at 10 µM (NCI-H23) was 10.2%. For the same compound, the MIC (S. aureus ATCC 6538) was greater than 20 µM, the inhibition at 10 µM (NCI-H460) was 3.7% and the “Growth Inhibition (%)” value (MCF7) was 55.9%. The inhibition at 10 µM (MCF7) was 55.9%, the viability at 0.4 µM (human melanoma LOX IMVI) was 77.9% and the viability at 1.6 µM (human melanoma LOX IMVI) was 69.2%. For the same compound, the viability at 25 µM (human melanoma LOX IMVI) was 48.8%, the viability at 100 µM (human melanoma LOX IMVI) was 40.4% and the IC50 (human melanoma LOX IMVI) was 26.7 ± 1.5 µM. The inhibition at 10 µM (SF-539) was 8.9%, the inhibition at 10 µM (OVCAR-8) was 15.4% and the inhibition at 10 µM (SNB-19) was 9.8%. It also gave an inhibition at 10 µM (SN12C) of 2.6%, an inhibition at 10 µM (SF-268) of 12.4% and an inhibition at 10 µM (MDA-MB-468) of 12.9%. For the same compound, the MIC ([2]; Gram –ve strain) was 0.22 µM (≈ 0.133 µg/mL), the MIC [2, 4] was 0.13 to 0.8 µM (≈ 0.0786 to 0.484 µg/mL) and the MIC (E. coli ATCC 25,922; [5]) was 0.2 µM (≈ 0.121 µg/mL). The inhibition at 10 µM (RXF 393) was less than 0%, the inhibition at 10 µM (HS 578T) was 8.8% and the inhibition at 10 µM (A549/ATCC) was 14.2%. The inhibition at 10 µM (786-0) was 21.2%, the inhibition at 10 µM (A498) was 41.4% and the inhibition at 10 µM (NCI-H522) was 27.4%. The viability at 0.4 µM [3] was 103%, the viability at 1.6 µM [3] was 92.7% and the viability at 25 µM [3] was 69.3%. It also gave a viability at 100 µM [3] of 56.1%, an IC50 [3] greater than 150 µM and an inhibition at 10 µM (EKVX) of less than 0%. It also gave an inhibition at 10 µM (M14) of 8.2% and an inhibition at 10 µM (HL-60(TB)) of less than 0%.
`O=C(O)c1cn(C2CC2)c2cc(N3CCN(C(=O)CCCN4C(=O)SC(=Cc5cccc6ccccc56)C4=O)CC3)c(F)cc2c1=O` [3j, 1-cyclopropyl-6-fluoro-7-[4-[4-[5-(1-naphthylmethylene)-2,4-dioxo-thiazolidin-3-yl]butanoyl]piperazin-1-yl]-4-oxo-quinoline-3-carboxylic acid] showed an inhibition at 10 µM (UO-31) of 48.1%, an MIC [1] greater than 20 µM and an inhibition at 10 µM (SK-MEL-28) of 4.5%. It also gave a melting point of 219 °C, an inhibition at 10 µM (BT-549) of 20.5% and an inhibition at 10 µM (CAKI-1) of 18%. For the same compound, the inhibition at 10 µM (SR) was 14.1%, the inhibition at 10 µM (LOX IMVI) was 38.5% and the “Growth Inhibition (%)” value (LOX IMVI) was 38.5%. The inhibition at 10 µM (MALME-3 M) was 13.1%, the inhibition at 10 µM (NCI-H23) was 13.1% and the MIC (S. aureus ATCC 6538) was greater than 20 µM. The inhibition at 10 µM (NCI-H460) was 3.9%, the “Growth Inhibition (%)” value (MCF7) was 41.7% and the inhibition at 10 µM (MCF7) was 41.7%. For the same compound, the viability at 0.4 µM (human melanoma LOX IMVI) was 86.5%, the viability at 1.6 µM (human melanoma LOX IMVI) was 79.4% and the viability at 25 µM (human melanoma LOX IMVI) was 61.5%. It also gave a viability at 100 µM (human melanoma LOX IMVI) of 48.5%, an IC50 (human melanoma LOX IMVI) of 110 ± 6.23 µM and an inhibition at 10 µM (SF-539) of 9.9%. The inhibition at 10 µM (OVCAR-8) was 9%, the inhibition at 10 µM (SNB-19) was 20.1% and the inhibition at 10 µM (SN12C) was 24.1%. For the same compound, the inhibition at 10 µM (SF-268) was 29.1%, the inhibition at 10 µM (MDA-MB-468) was 4.7% and the MIC [2, 4] was greater than 20 µM. It also gave an MIC (E. coli ATCC 25,922; [5]) of 1.94 to 2.6 µM (≈ 1.27 to 1.7 µg/mL), an MIC (E. coli ATCC 25,922; Gram –ve strain) of 2.60 µM (≈ 1.7 µg/mL) and an inhibition at 10 µM (RXF 393) of 11.2%. The inhibition at 10 µM (HS 578T) was 30.2%, the inhibition at 10 µM (A549/ATCC) was 9.3% and the inhibition at 10 µM (786-0) was 18.5%. The inhibition at 10 µM (A498) was 50.9%, the “Growth Inhibition (%)” value (A498; Renal Cancer A498) was 50.9% and the inhibition at 10 µM (NCI-H522) was 18.5%. The viability at 0.4 µM [3] was 84.7%, the viability at 1.6 µM [3] was 71.9% and the viability at 25 µM [3] was 51.4%. It also gave a viability at 100 µM [3] of 42.5%, an IC50 [3] of 33.9 ± 1.91 µM and an inhibition at 10 µM (EKVX) of 9.1%. The inhibition at 10 µM (M14) was 16.7% and the inhibition at 10 µM (HL-60(TB)) was less than 0%.
